Test results taken from US9610369B2, “Compound suitable for detection of vesicular acetylcholine transporter” (HAMAMATSU PHOTONICS K.K., priority 2013, dated 2017).

How the values were obtained:
[1] = target: T1, vesicular acetylcholine transporters (Macaca mulatta, UniProt A0A1D5QJ59); assay: PET measurement of time-dependent change of [^11C]HAPT in brain ROIs; format: in vivo, Rhesus monkey (Macaca mulatta); conditions: brain of Rhesus monkey, FIG. 1; for binding to vesicular acetylcholine transporters: intravenous administration, dynamic PET 180 minutes
T1 construct: Rhesus monkey having a body weight of about 5 kg was immobilized to PET apparatus; from tissue; host or cells: brain of living Rhesus monkey (in vivo PET)
T1 sequence (A0A1D5QJ59 1-532): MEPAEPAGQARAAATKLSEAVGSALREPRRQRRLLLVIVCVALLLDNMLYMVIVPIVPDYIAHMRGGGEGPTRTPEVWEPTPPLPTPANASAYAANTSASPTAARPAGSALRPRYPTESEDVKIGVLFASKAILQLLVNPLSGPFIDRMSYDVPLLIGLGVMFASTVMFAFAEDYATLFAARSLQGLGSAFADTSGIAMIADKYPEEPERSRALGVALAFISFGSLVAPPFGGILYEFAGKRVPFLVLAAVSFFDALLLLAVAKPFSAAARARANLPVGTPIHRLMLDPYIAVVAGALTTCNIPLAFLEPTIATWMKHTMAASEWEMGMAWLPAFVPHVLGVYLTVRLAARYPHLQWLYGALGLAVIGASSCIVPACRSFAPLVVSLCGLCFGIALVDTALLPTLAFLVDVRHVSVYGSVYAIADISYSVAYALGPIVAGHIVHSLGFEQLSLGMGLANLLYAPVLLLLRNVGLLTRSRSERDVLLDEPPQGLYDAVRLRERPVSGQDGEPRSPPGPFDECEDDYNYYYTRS
Method: (§1) Rhesus monkey having a body weight of about 5 kg was immobilized to PET apparatus (trade name, SHR7700 manufactured by Hamamatsu Photonics KK) without anesthesia. After transmission was measured for absorption correction, [^11C]HAPT was intravenously administered and dynamic measurement was performed for 180 minutes.
In tomographic images obtained from a single individual by a nuclear magnetic resonance tomography apparatus (hereinafter, MRI), a region of interest (ROI) was determined and then, a time-dependent change of a labeled compound ([^11C]HAPT) in each ROI was obtained.

[2] = target: T1, vesicular acetylcholine transporters; assay: Localization of [^11C]HAPT in individual sites of the brain (PET); format: in vivo; conditions: brain of Rhesus monkey, 13 sites checked, FIG. 3
Method: as §1
Localization of [^11C]HAPT in individual sites of the brain of Rhesus monkey was checked. The results of the cases of using (S,S)HAPT-A and (R,R)HAPT-A are shown in FIG. 3 (A); whereas the results of the cases of using (S,S)HAPT-B and (R,R)HAPT-B are shown in FIG. 3 (B).

[3] = target: T1, vesicular acetylcholine transporters; assay: Inhibition experiment with vesicular transporter inhibitor vesamicol (PET); format: in vivo, Rhesus monkey; conditions: L-(−)-vesamicol 1 mg/kg intravenously 30 minutes before tracer, FIG. 4 and 5
Method: Inhibition experiments were performed by using a vesicular transporter inhibitor (vesamicol). Specific procedure employed is as follows.
The cephalic vein or saphenous vein was secured as the route for intravenous administration to test animals and the femoral artery or posterior tibial artery was secured as the route for arterial blood sampling.
Thirty minutes before administration of [^11C]HAPT, L-(−)-vesamicol was intravenously administered in a dose of 1 mg/kg.
The amount of radioactivity of [^11C]HAPT before administration was measured. A total amount of [^11C]HAPT was intravenously administered from an indwelling needle placed in a test animal over about 30 seconds. Simultaneously with initiation of administration, Emission measurement (121 minutes, 55 frames in total including: 10 seconds 6 frames, 30 seconds 6 frames, 1 minute 12 frames, […], 5 minutes 6 frames) was started for monitoring.

Compound | binding to vesicular acetylcholine transporters [1] | localization in individual sites of the brain [2] | binding to vesicular acetylcholine transporters with vesamicol compared to control [3] | time to reach an equilibrium state from initiation of measurement ([1]; PET)
Cc1cccc2c1C[C@H](O)[C@@H](N1CCN(c3ccccc3N)CC1)C2 [(S,S)[^11C]HAPT-B] | does not bind to vesicular acetylcholine transporters | non-specific binding in any site | – | –
Cc1cccc2c1C[C@H](N1CCN(c3ccccc3N)CC1)[C@@H](O)C2 [(S,S)[^11C]HAPT-A] | specifically bind to vesicular acetylcholine transporters | localized most significantly in the putamen | – | –
[11CH3]c1cccc2c1C[C@@H](O)[C@H](N1CCN(c3ccccc3N)CC1)C2 [(R,R)[^11C]HAPT-B, (2R,3R)-3-(4-(2-aminophenyl)piperazin-1-yl)-8-[^11C]methyl-1,2,3,4-tetrahydronaphthalen-2-ol] | specifically bind to vesicular acetylcholine transporters | – | reduces | about 15 minutes
Cc1cccc2c1C[C@@H](O)[C@H](N1CCN(c3ccccc3N)CC1)C2 [(R,R)[^11C]HAPT-B, (2R,3R)-3-(4-(2-aminophenyl)piperazin-1-yl)-8-[^11C]methyl-1,2,3,4-tetrahydronaphthalen-2-ol] | specifically binds to a vesicular acetylcholine transporter | localized most significantly in the putamen | – | –
Cc1cccc2c1C[C@@H](N1CCN(c3ccccc3N)CC1)[C@H](O)C2 [(R,R)[^11C]HAPT-A] | specifically bind to vesicular acetylcholine transporters | localized most significantly in the putamen | – | –
